# Laboratory results reported in patent publication US20090062222A1, “Methods for Sensitizing Cancer Cells to Inhibitors” (TRUSTEES OF BOSTON UNIVERSITY, priority 2005, published 2009).
# Like-named read-outs stand apart in the source and are kept apart here. Where a SMILES comes first, the peptide text is derived from it. The star is where a group is joined. Cbz = O=C(OCc1ccccc1)*
# Tests used:
# [1] = test system: HSP72 induction (CHO cells); assay: Inhibition of Hsp72 induction by heat shock in CHO cells (immunoblotting); type: cell-based; conditions: for IC50 / Inhibition of Hsp72 induction, second step of the screening: CHO cells; for Inhibition of Hsp72 induction by heat shock, NCI similarity set: concentrations between 2 and 10 μM; for Inhibition of Hsp72 induction, second step of the screening: 45° C. 10 min, then 6 hours at 37° C.
# [2] = test system: CHO cells; assay: Toxicity in CHO cells; type: cell-based; conditions: for IC50: Cricetulus griseus, read-out: IC50 toxicity
# Text: Three of these compounds, including emetine, tubulosine, and NZ28, have significant structural similarity.
# [3] = test system: PC-3 cells; assay: Clonogenic survival of PC-3 cells
# [4] = test system: HSP72; assay: HSP72 induction in PC-3 cells (heat shock, proteasome or HSP90 inhibitors), immunoblotting; type: cell-based, human; conditions: for inhibition at 10 µM / inhibition at 2 µM: Homo sapiens; for Inhibition of Hsp72 induction by 17-AAG: PC-3 cells; for inhibition at 2 µM: read-out: HSP72 Inhibition, by NZ28 (2 μM)
# [5] = test system: PC-3 cells; assay: Apoptosis by PARP cleavage in PC-3 cells
# [6] = test system: HSP72; assay: HSP72 induction in MM.1S cells (heat shock, proteasome or HSP90 inhibitors), immunoblotting; type: cell-based, human; conditions: for HSP72 induction by the drug / Inhibition of HSP72 induction by proteasome inhibitors: MM.1S; for HSP72 induction by the drug: 16 hours; for inhibition at 10 µM / inhibition at 2 µM: Homo sapiens, MM1.S; for inhibition at 10 µM: read-out: HSP72 inhibition, by Emunin (10 μM), MM.1s; for Inhibition of Hsp72 induction in response to Hsp90 inhibitors radicicol and 17-AAG: MM.1S blocked stronger than PC-3; for Inhibition of HSP72 induction by proteasome inhibitors: VELCADE or MG132 for 16 hours; for inhibition at 2 µM: MM.1s, read-out: HSP72 Inhibition, by NZ28 (2 μM)
# [7] = test system: CMV-driven GFP; assay: General protein synthesis: CMV-driven GFP expression in CHO cells; type: cell-based; conditions: added 16 hours post-infection, 24 hours, NZ28 2 μM, emunin 10 μM
# [8] = test system: HSP27; assay: HSP27 induction by proteasome and HSP90 inhibitors in MM.1S cells, immunoblotting; conditions: VELCADE or Radicicol, emunin 10 μM, NZ28 2 μM added 5 hours before
# [9] = test system: MM.1S cells; assay: Apoptosis by PARP cleavage in MM.1S cells
# [10] = test system: HSF1-activated Hsp70B promoter; assay: HSF1 activity: luciferase reporter under Hsp70B promoter in PC-3 cells after heat shock; conditions: added 5 hours before 45° C. 10 min, overnight recovery
# [11] = test system: HCT-116 cells; assay: Apoptosis by PARP cleavage in HCT-116 cells; type: cell-based, human
# Text: Sensitization to proteasome and Hsp90 inhibitors was seen when we tested additional cancer cells lines. In fact, depletion of HSF1 by treatment with siRNA in either a distinct prostate carcinoma line DU-145 or colon carcinoma HCT-116 cells led to suppression of the heat shock response and increased sensitivity to MG132 and 17-AAG (FIG. 2). […] Depletion of HSF1 in these cells led to a dramatic reduction of the constitutive Hsp72 levels (FIG. 2B) and very strong sensitization to the drugs (FIGS. 2C, 2D, and 2E).
# [12] = test system: luciferase under the tet-off promoter; assay: General protein synthesis: luciferase induction under tet-off promoter in CHO cells; type: cell-based; conditions: 24 hours, NZ28 1 and 2 μM
# [13] = test system: HSP72; assay: HSP72 induction in MEF cells (proteasome or HSP90 inhibitors), immunoblotting; conditions: Mus musculus, read-out: HSP72 Inhibition, by NZ28 (2 μM)
# [14] = test system: protein synthesis; conditions: cited from earlier work
# [15] = Cricetulus griseus, heat shock, read-out: IC50 HSP72 Induction Inhibition (CHO cells)
# [16] = Cricetulus griseus, heat shock (FIGS. 3A and 3B), read-out: IC50 for inhibition of Hsps induction
# [17] = 4 min, Heat Shock 45° C., 4 min
# [18] = HSP90 Inhibitor Radicicol 0.8 μM
# [19] = Proteasome Inhibitor VELCADE 5 nM
structure (smiles),measurement,setting,value
"CCC1=C(CC2NCCc3cc(OC)c(OC)cc32)CC2c3cc(OC)c(OC)cc3CCN2C1 (stereo not drawn) [dehydroemetine, reference compound]",IC50,[1]; [15],< 500 nM
same,"Inhibition of Hsp72 induction by heat shock, NCI similarity set",[1],inhibit Hsp72 induction
same,IC50,[2]; CHO cells,< 500 nM
CCC1CN2CCc3cc(OC)c(OC)cc3C2CC1CC1NCCc2c1[nH]c1ccc(O)cc21 (stereo not drawn) [tubulosine],"Inhibition of Hsp72 induction, second step of the screening",[1]; 2 μM,inhibit Hsp72 induction
same,IC50,[1]; [15],500 nM
same,Toxicity in an apoptotic assay,[2],showed toxicity
same,IC50,[2]; CHO,250 nM
COc1cc2c(cc1OC)C(CC1=CCN3CCc4ccccc4C3C1)NCC2 (stereo not drawn) [NZ60],IC50,[1]; [15],> 10000 nM
same,IC50,[2]; CHO cells,< 2000 nM
"O=c1c(O)c(-c2ccc(O)c(O)c2)oc2cc(O)cc(O)c12 [quercetin, reference compound]",IC50,[1]; [16],~50000 nM
"C=CCNC1=C2C[C@@H](C)C[C@H](OC)[C@H](O)[C@@H](C)/C=C(\C)[C@H](OC(N)=O)[C@@H](OC)/C=C\C=C(/C)C(=O)NC(=CC1=O)C2=O [17-AAG, 17-(allylamino)-17-demethoxygeldanamycin, reference compound]","Sensitization by si-HSF1, colony forming ability",[3]; wide range of concentrations,about 5 fold
same,Hsp72 induction by the drug,[4],strongly induced
same,Increase in PARP cleavage on depletion of HSF1,"[5]; PC-3, 0.25 μM, 24 hours",100%
CCC1=C(C)CC2c3cc(OC)c(OC)cc3CCN2C1 (stereo not drawn) [NZ61],IC50,[1]; [15],> 10000 nM
same,IC50,[2]; CHO cells,< 2000 nM
COc1cc2c(cc1OC)C(CC1=C(c3ccccc3)CN3CCc4cc(OC)c(OC)cc4C3C1)NCC2 (stereo not drawn) [NZ62],IC50,[1]; [15],> 10000 nM
same,IC50,[2]; CHO cells,< 2000 nM
"CC(C)C[C@@H](C=O)NC(=O)[C@H](CC(C)C)NC(=O)[C@H](CC(C)C)NC(=O)OCc1ccccc1 [MG132, N-carbobenzoxyl-Leu-Leu-leucinal, reference compound] (Cbz-Leu-Leu-Leu-aldehyde)","Sensitivity of si-HSF1 cells, colony forming ability",[3]; between 0.25 μM and 2 μM,very strong enhancement of sensitivity
same,Hsp72 induction by the drug,"[4]; PC-3 RetroQ cells, 24 hours",strongly induced
same,"PARP cleavage, MG132 alone","[5]; PC-3, 2 days",approximately 10%
same,HSP72 induction by the drug,[6],Strong induction
CCC1CN2CCc3cc(OC)c(OC)cc3C2CC1C1c2cc(OC)c(OC)cc2CCN1C(=O)CNC(=O)OC(C)(C)C (stereo not drawn) [NZ71],Inhibition of GFP expression (CMV promoter),[7],No significant inhibition of GFP expression
same,"Colony forming ability, emunin alone",[3],did not affect the colony forming ability
same,Inhibition of Hsp27 induction,[8],inhibit HSP72 and HSP27 induction
same,inhibition at 10 µM,"[4]; PC-3, 20 min, read-out: HSP72 inhibition, by Emunin (10 μM), PC-3, Heat Shock 45° C., 20 min",80%
same,inhibition at 10 µM,"[4]; PC-3, read-out: HSP72 inhibition, by Emunin (10 μM), PC-3, HSP90 Inhibitor 17-AAG 2 μM",60%
same,inhibition at 10 µM,"[4]; PC-3, read-out: HSP72 inhibition, by Emunin (10 μM), PC-3, Proteasome Inhibitor MG132 1 μM",80%
same,Inhibition of Hsp72 induction by 17-AAG,[4],only weak inhibition
same,"PARP cleavage, emunin alone",[9],did not cause PARP cleavage
same,"PARP cleavage, emunin and VELCADE together","[9]; VELCADE 5 nM + 10 μM emunin, overnight",70%
same,"PARP cleavage, radicicol and emunin","[9]; radicicol 0.5 μM + 10 μM emunin, 24 hours",about 50%
same,inhibition at 10 µM,"[1]; Cricetulus griseus, 10 min, CHO, Heat Shock 45° C., 10 min, 10 μM, read-out: HSP72 inhibition, by Emunin (10 μM)",95%
same,IC50,[1]; [16],5000 nM
same,IC50,[1]; [15],5000 nM
same,"Inhibition of Hsp72 induction by heat shock, NCI similarity set",[1],inhibit Hsp72 induction
same,Sensitization of si-HSF1 PC-3 cells to MG-132,[5]; HSF1-depleted PC-3 cells,no apparent sensitization
same,"PARP cleavage, MG132 and emunin","[5]; PC-3, 2 days",50%
same,Sensitization to radicicol,[5]; PC-3 cells,little sensitization
same,Cell growth inhibition,[2]; CHO cells,very little cell growth inhibition
same,Toxicity,[2]; CHO cells,non-toxic
same,IC50,[2]; CHO cells,> 10000 nM
same,Inhibition of luciferase induction by heat shock (Hsp70B promoter reporter),[10],about 40%
same,inhibition at 10 µM,[6]; [17],90%
same,inhibition at 10 µM,[6]; [18],90%
same,inhibition at 10 µM,[6]; [19],95%
same,Inhibition of Hsp72 induction in response to Hsp90 inhibitors radicicol and 17-AAG,[6],inhibited induction of Hsp72
same,Inhibition of HSP72 induction by proteasome inhibitors,[6],almost completely inhibited HSP72 induction
COc1cc2c(cc1OC)CN1CCc3cc(OC)c(OC)cc3C1C2 (stereo not drawn) [NZ50],IC50,[1]; [15],> 10000 nM
same,IC50,[2]; CHO cells,< 2000 nM
"CCC1CN2CCc3cc(OC)c(OC)cc3C2CC1CC1NCCc2cc(O)c(OC)cc21 (stereo not drawn) [Isocephaeline, Emetan-6′-ol, 7′,10,11-trimethoxy-,(1′beta)-]",IC50,[1]; [15],< 500 nM
same,"Inhibition of Hsp72 induction by heat shock, NCI similarity set",[1],inhibit Hsp72 induction
same,IC50,[2]; CHO,< 500 nM
"COc1cccc2c1C(=O)c1c(O)c3c(c(O)c1C2=O)C[C@@](O)(C(=O)CO)C[C@@H]3O[C@H]1C[C@H](N)[C@H](O)[C@H](C)O1 [doxorubicin, reference compound]",Sensitization to apoptosis by si-HSF1,[5],little or no sensitization
C[C@@H]1C[C@H]2O[C@@H]2/C=C\C=C\C(=O)Cc2c(Cl)c(O)cc(O)c2C(=O)O1 [radicicol],"PARP cleavage, radicicol alone","[9]; 0.5 μM, 24 hours",10%
same,Sensitivity of control cells,[11]; HCT-116 control cells,resistant
same,Sensitivity of si-HSF1 cells,[11]; HCT-116 si-HSF1 cells,quite sensitive
"CC(C)C[C@H](NC(=O)[C@H](Cc1ccccc1)NC(=O)c1cnccn1)B(O)O [VELCADE®, bortezomib, reference compound]","PARP cleavage, VELCADE alone","[9]; 5 nM, overnight",30%
same,HSP72 induction by the drug,[6],Strong induction
CCC1=C(CC2NCCc3ccccc32)CC2c3cc(OC)c(OC)cc3CCN2C1 (stereo not drawn) [NZ28],Inhibition of GFP expression (CMV promoter),[7],No significant inhibition of GFP expression
same,Inhibition of luciferase expression (tet-off promoter),[12],Neither NZ28 (FIG. 3C) nor emunin (not shown) inhibited luciferase expression
same,Inhibition of Hsp27 induction,[8],inhibit HSP72 and HSP27 induction
same,inhibition at 2 µM,"[4]; PC-3, 20 min, PC-3, Heat Shock 45° C., 20 min",85%
same,inhibition at 2 µM,"[4]; PC-3, PC-3, HSP90 Inhibitor 17-AAG 2 μM",70%
same,inhibition at 2 µM,"[4]; PC-3, PC-3, Proteasome Inhibitor MG132 1 μM",90%
same,Inhibition of Hsp72 induction by 17-AAG,[4],significant but transient
same,Sensitization to radicicol (PARP cleavage),"[9]; 0.1 μM radicicol 48 h, 2 μM NZ28",similarly sensitized
same,"Inhibition of Hsp72 induction, second step of the screening",[1]; 2 μM,inhibit Hsp72 induction
same,inhibition at 2 µM,"[1]; Cricetulus griseus, 10 min, CHO, Heat Shock 45° C., 10 min, 2 μM, read-out: HSP72 Inhibition, by NZ28 (2 μM)",99%
same,IC50,[1]; [16],1000 nM
same,IC50,[1]; [15],1000 nM
same,Cell growth inhibition,[2]; CHO cells,slight growth inhibition
same,Toxicity,[2]; CHO cells,did not show toxicity
same,IC50,[2]; CHO cells,5000 nM
same,Inhibition of luciferase induction by heat shock (Hsp70B promoter reporter),[10],about 40%
same,inhibition at 2 µM,[13],100%
same,inhibition at 2 µM,[6]; [17],100%
same,inhibition at 2 µM,[6]; [18],90%
same,inhibition at 2 µM,[6]; [19],100%
same,Inhibition of Hsp72 induction in response to Hsp90 inhibitors radicicol and 17-AAG,[6],inhibited induction of Hsp72
same,Inhibition of HSP72 induction by proteasome inhibitors,[6],almost completely inhibited HSP72 induction
"CCC1CN2CCc3cc(OC)c(OC)cc3C2CC1CC1NCCc2cc(OC)c(OC)cc21 (stereo not drawn) [Emetine, reference compound]",Concentration at which protein synthesis is inhibited,[14],above 10 μM
same,"Inhibition of Hsp72 induction, second step of the screening",[1]; 2 μM,inhibit Hsp72 induction
same,IC50,[1]; [15],< 250 nM
same,Toxicity in an apoptotic assay,[2],showed toxicity
same,IC50,[2]; CHO cells,< 250 nM
CCC1CN2CCc3cc(OC)c(OC)cc3C2CC1CC1NCCc2c1[nH]c1ccc(OC)cc21 (stereo not drawn) [NZ72],IC50,[1]; [15],2000 nM
same,"Inhibition of Hsp72 induction by heat shock, NCI similarity set",[1],inhibit Hsp72 induction
same,IC50,[2]; CHO cells,> 2000 nM
COc1ccc(CC2NCCc3cc(OC)c(OC)cc32)cc1OC (stereo not drawn) [NZ54],IC50,[1]; [15],> 10000 nM
same,IC50,[2]; CHO cells,< 2000 nM
